# Test results from patent US11826467B2, “W/O/W microemulsions for ocular administration” (University of Tennessee Research Foundation, priority 2017, dated 2023).
# What was measured:
# [1] = tested on: IOP; assay: Efficacy of other gabapentinoid drugs (IOP, viscous eye drops); assay type: in vivo; details: 0.9% drug in 2% HPMC viscous eye drops, C57Bl/6 J mice
# Source text: To determine if other members of the gabapentinoid drug family are also efficacious in reducing IOP, we compared the efficacy of 0.9% pregabalin, 0.9% 2-phenylglycine and 0.9% gabapentin in 2% HPMC viscous eye drops in C57Bl/6 J mice.
# 2-phenylglycine (FIG. 28) and gabapentin (FIG. 29) were not as efficacious as pregabalin although they both had maximum IOP reductions of −8% and areas under the curve of −14% hr.
# [2] = cited from earlier work
# [3] = tested on: IOP; assay: IOP lowering by pregabalin HPMC eye drops in mice (dose response); assay type: in vivo, B6 mice
# Source text: 0.9% is the minimum concentration that gives maximum effect (n=5).
# (§1) It is also modestly present in the CM. Based upon these collective data, it appears that CACNA2D1 regulates IOP (FIG. 3). Pregabalin, or other gabapentinoid drugs, binds to the CACNA2D1 subunit of the calcium channel. The binding of the drug mitigates the flux of calcium through the α1 pore of the calcium channel, reducing the level of intracellular calcium. Since Cacna2d1 modulates IOP, pregabalin, a gabapentinoid drug with high specificity for CACNA2D1, was evaluated for its ability to affect IOP. […] The 1.2% pregabalin eye drops extended the duration of the IOP-lowering effect of pregabalin above that obtained with 0.6% pregabalin. Because there was no significant difference in the percent reduction of IOP between 0.9 and 1.2% pregabalin, we selected 0.9% as the minimal concentration required to produce the maximum reduction in IOP. Expanding this analysis to an additional species, we observed a similar IOP-lowering response (22.1±2.8%) in Dutch belted rabbits after instillation of 0.9% pregabalin eye drops (FIG. 5).
# [4] = tested on: IOP; assay: IOP lowering by pregabalin HPMC eye drops in rabbits; assay type: in vivo; details: 0.9% pregabalin in HPMC eye drops, Dutch belted rabbits
# Source text: FIG. 5: Pregabalin (0.9%) suspended in hydroxypropyl methylcellulose (HPMC) lowers IOP by 23% in Dutch belted rabbits (n=5).
# as §1
SMILES,area under the curve [1] [% hr],maximum IOP reduction [1] [%],solubility in water [2],"IOP-lowering effect compared to control ([3]; drops containing 0.3% pregabalin suspended in HPMC, topical, B6 mice)","IOP reduction, dose dependence ([3]; pregabalin 0.3-1.2% suspended in HPMC, eye drops, mice)","minimal concentration required to produce the maximum reduction in IOP ([3]; pregabalin in HPMC eye drops, B6 mice, plateau, no significant difference 0.9 vs 1.2%) [%]",time at which IOP returned to baseline [1] [h],IOP-lowering response (IOP reduction) [4] [%],IOP-lowering response (IOP reduction) ([4]; listed as pregabalin) [%]
NC(C(=O)O)c1ccccc1 (stereo not shown) [2-phenylglycine],−14,−8,–,–,–,–,–,–,–
"NC(=O)c1ncn([C@@H]2O[C@H](CO)[C@@H](O)[C@H]2O)n1 [Ribavirin, 113-D-ribofuranosyl-1H-1,2,4-triazole-3-carboxamide]",–,–,freely soluble in water,–,–,–,–,–,–
"CC(C)C[C@H](CN)CC(=O)O [Pregabalin, pregabalin]",65,17.3,–,no IOP-lowering effect,dose-dependent manner,0.9,≤ 6,23,22.1±2.8
NCC1(CC(=O)O)CCCCC1 [gabapentin],−14,−8,–,–,–,–,–,–,–
